Data reported in patent US10852311B2, “Additive channels” (Emulate Inc., priority 2016, dated 2020).
Where a name gives a salt, the structure may show the parent alone. Positions of bridges follow the written chain, without caps; N, C: chain ends. Non-standard residues stand in square brackets, D forms with d. Residues, ends and D or L forms follow the SMILES beside them. hArg = N=C(N)NCCCC[C@H](N)C(=O)O; Mpa = O=C(O)CCS

How the values were obtained:
platelets [1] = assay: Platelet activation quality control by p-selectin expression; type: cell-based, human; conditions: control blood upon activation by ADP
Description: To test for a thrombic event, blood was collected from 4 donors, the as blood alone or blood treated with hu5C8 alone (240 μg/mL), sCD40L (10 ng/ml) alone or with combined hu5C8/sCD40L was incubated for 20 minutes at room temperature. Each sample was further incubated for 5 minutes with fluorescent labels for platelets and fibrinogen. As a standard quality control, the control blood was tested for platelet activation using p-selection expression. We confirmed that platelets in control blood were not activated but upon activation by ADP, over 90% of platelet was positive for p-selectin.

fibrin = assay: Vessel-On-Chip blood perfusion, fibrin deposition by fluorescent fibrinogen imaging; type: cell-based, human
Description: (§1) A medical grade plastic reservoir was mounted on the chip, then 800 μl of the blood sample was pipetted into the reservoir. The chip was perfused with the blood by withdrawing it at a rate of 60 μl/minute using a syringe pump. The citrated blood was re-calcified 2 minutes after the beginning of each experiment by adding 100 μl/ml of a solution containing 100 mM calcium chloride and 75 mM magnesium chloride to the blood to permit calcium- and magnesium-dependent platelet function and coagulation.
When analyzing the formation of fibrin, 10 μg/ml of fluorescently labeled fibrinogen (Alexa 488, Invitrogen) was also added to the blood. While fluorescent fibrinogen was barely detected as a diffused fluorescence, fibrin deposition on inflamed cells and sparse clots was easily distinguished since fibrin formed filamentous structures produce a signal intensity that is clearly observed above a background threshold.
(§2) Chips perfused with blood samples were immediately imaged via fluorescence microscopy (Olympus IX83, 10X objective UPLFLN10X2, Circa-Flash4.0 CMOS Camera). Each chamber was inspected along its entire length and 5 images (about […]) were captured from the central area of the chamber. Image processing and quantification was performed with an automatic macro compiled in […] and numerical values corresponding to platelet coverage or fibrin florescence were collected and statistically analyzed in Graphpad Prism V7.
(§3) A percentage of signal coverage (or Platelet coverage) was computed from the binary image as the ratio of bright pixels to the total number of pixels in the image. Image processing and quantification was performed with an automatic macro compiled in ImageJ ire order to ensure unbiased signal measurements. Numerical values corresponding to platelet coverage or fibrin fluorescence (signal intensity) were collected and statistically analyzed in Graphpad Prism V7.

[2] = tested on: thrombin anti-thrombin complex (TAT); assay: Thrombin-anti thrombin (TAT) measurement via ELISA in chip effluent; type: cell-based, human; conditions: for TAT increment: Eptifibatide treatment
Description: Thrombin Anti-Thrombin (TAT) levels were analyzed in plasma from blood flowing out of the chip device by removing a sample from the outflow port. Thus TAT levels were evaluated in sample effluents collected from the outflow port of the chip using the Human TAT ELISA Kit (Siemens Healthineers) according to the user manual.
Blood sampled from the Vessel-On-Chip outflow port was analyzed for thrombin anti-thrombin complex (TAT), a factor released upon activation of the coagulation cascade and one of the biomarkers associated with thrombotic events occurring in patients affected with deep vein thrombosis (DVT) or SLE^45,46. TAT is an accepted clinical biomarker for procoagulation^48,49. An enzyme-linked immunosorbent assay (ELISA) was used to quantify the thrombin anti-thrombin complex (TAT).

platelets [3] = assay: Vessel-On-Chip blood perfusion, platelet coverage/aggregation by fluorescence imaging; type: cell-based, human
Description: At the start of each experiment, two vials of cells were thawed and expanded for 3 days in EGM-2. Cells were gently detached with 0.05% Trypsin (BD Biosciences, 2-4 minutes incubation at room temperature) and 8×10^6 cells/ml were introduced into the ECM-coated microchannels. After incubating for 30 minutes at 37° C., cell attachment to the bottom surface of the chamber was assessed by microscopy. Then, a second flask of HUVECs was trypsinized and used to seed the upper surface of the microfluidic chamber by introducing the cell suspension, inverting the chip, and incubating at 37° C. for 30 minutes. Each microfluidic chamber was gently flushed with EGM-2 twice in order to remove unbound cells, then chips were incubated overnight at 37° C. The next day, chips were connected to a syringe pump (Chemyx Fusion 200) and perfused with EGM-2 for 3 days (30 μL/hr) to provide continuous supply of fresh media. On day 3, medium was switched to EGM-2 with low serum (1% FBS, no VEGF) to promote cell synchronization overnight. On day 4, chips were used for blood perfusion experiments.
Citrated human blood (Research Blood Components, Cambridge, Mass.) was used within 4 hours of a blood draw in order to minimize pre-analytical effects on platelet function. Before every experiment, each one of the endothelialized channels (i.e. microchannels having an endothelial cell layer) was inspected via light microscopy. Samples showing any sign of discontinuity in the endothelium were discarded.
Platelets were labeled with human CD41-PE antibody (10 μL/ml, Invitrogen) directly added to the blood and incubated at room temperature for 5 minutes.
as §1, §2, §3

re-calcified blood = assay: On-chip anticoagulation of outflowing blood through the anticoagulant port; design: species or system human; conditions: sodium citrate through the anticoagulant port vs chips without anticoagulant port
Description: In one embodiment, the surface area of the vascular compartment of a microfluidic chip used herein is greater in comparison to the original lung-on-a-chip design because the original size was too small for optimal blood component interaction with endothelium. As described herein, a 1 mm wide and 200 μm tall chamber provided an increase in size of the vascular surface area exposed to laminar flow, as compared to an exemplary lung-on-chip. An anticoagulant port, referred to by several names, including but not limited to EDTA input, citrate input, etc., was added near the outflow port of the vascular chamber. Thus two ports (anticoagulant port and vascular outflow i.e. outflow) were linked through a microfluidic channel (dimension of 250 um wide by 100 um height) to allow for perfusion of anticoagulant solution during the experiment. In some embodiments, modifications were made in the […] dimension. The outlet of the chip was connected to a pulling syringe pump with a system of tubing and connectors made of medical grade silicon that excludes any metal components or potential causes of platelet activation. […]

ICAM1 = ICAM1 immunostaining of endothelium on chip; type: cell-based, human; conditions: TNF-α stimulated endothelium compared to the control
Description: In some experiment endothelial cells were stimulate with 50 ng/ml of TNF (Sigma) for 6 hours in order to induce vascular inflammation before blood perfusion.

platelets [4] = assay: Hu5C8 mediated thrombosis on-chip, FcγRIIa dependence (platelet coverage, fibrin deposition, TAT); type: cell-based, human
Description: Recent studies conducted on humanized mice expressing the human Fcγ receptors (FCGR2A) have shown that this receptor plays a role in thrombosis leading to the IC-mediated toxicity^12,16,21. […] In order to investigate if the IC5c8-induced thrombosis that we observed in our vessel-on-chip system also relies on an Fc-mediated mechanism, we used two different tool molecules: IgG2σ and IV.3 (FIG. 25A). The IgG2σ variant of hu5C8 has an engineered Fc region^48 that eliminates affinity for the FcγRIIa, while the monoclonal antibody IV.3 is a blocking antibody binding to FcγRIIa. […]
Some of the blood samples were treated with IV.3 (1 μg/ml) for 10 minutes to block the FcγRIIa, and then incubated for 20 more minutes with IC5c8. […] We tested 15 donors and all the tested conditions described above were tested in duplicates and analyzed as percentage of platelet coverage based on fluorescence microscopic imaging (FIG. 25B). […]
Blood from several human donors were aliquoted into groups for the following treatments: controls (PBS), sCD40L, combined hu5C8/sCD40L, combined hu5C8 (IgG2σ)/sCD40L combined, and combined hu5C8/sCD40L/IV.3. Each condition was tested with a minimum of 3 donors to a maximum of 15 donors, and all conditions were tested in duplicates and analyzed for platelet coverage (FIG. 25B), fibrin deposition (FIG. 25C), or increased formation of TAT measured in the eluates (FIG. 25D). […]

[5] = Eptifibatide 2 ug/ml, endothelium inflamed with TNF-α, n=4
[6] = Eptifibatide 2 ug/ml, following treatment with sCollagen, n=4
[7] = Eptifibatide 2 ug/ml, samples treated with TNF-α, n=4
[8] = TNF-α 50 ng/ml 6 hours on endothelium, or sCollagen 10 μg/ml in blood, vs control blood
[9] = hu5C8 240 μg/mL, sCD40L 10 ng/ml, 4 donors, 60 μl/minute about 10 minutes, vs untreated blood

## Nc1ncnc2c1ncn2[C@@H]1O[C@H](COP(=O)(O)OP(=O)(O)O)[C@@H](O)[C@H]1O [ADP]
Platelets [1]
  platelet positive for p-selectin: over 90%

## N=C(N)NCCCC[C@@H]1NC(=O)CCSSC[C@@H](C(N)=O)NC(=O)[C@@H]2CCCN2C(=O)[C@H](Cc2c[nH]c3ccccc23)NC(=O)[C@H](CC(=O)O)NC(=O)CNC1=O [Eptifibatide] ([Mpa][hArg]GDWPC-NH2; disulfide 1-7)
fibrin; [5]
  fibrin clot formation: significantly inhibited
fibrin; [6]
  inhibitory effect on fibrin clot formation: comparatively modest
fibrin; [7]
  fibrin signal (image analysis): a significant amount of fibrin signal was still detectable
[2]; TNF-α-induced inflammation
  TAT increment: did not inhibit
[2]; sCollagen treatment
  TAT increment: entirely suppressed
Platelets [3]; [5]
  platelet aggregation: significantly inhibited
Platelets [3]; [6]
  inhibitory effect on platelet aggregation: comparatively modest
Platelets [3]; [7]
  platelet adhesion (image analysis): completely inhibited

## O=C(O)CC(O)(CC(=O)O)C(=O)O [sodium citrate]
re-calcified blood
  state of blood collected from the effluent: soluble (not clotted) blood

## TNF-α
fibrin; [8]
  fibrin signal intensity: increased
ICAM1
  expression of ICAM1 in the endothelium: increased
[2]; plasma from blood flowing out of the chip, FIG. 22B
  levels of TAT: significantly increased
Platelets [3]; [8]
  areas of platelet coverage: increased

## hu5C8 (IgG2σ): IgG2σ variant of hu5C8 with engineered Fc region that eliminates affinity for FcγRIIa
Platelets [4]; combined with sCD40L (IV.3: combined hu5C8/sCD40L/IV.3)
  signs of thrombosis in any of the endpoints: did not show signs of thrombosis
Platelets [4]; preformed IC, IV.3 1 μg/ml 10 minutes, 15 donors
  hu5C8-mediated thrombosis: suppressed

## hu5C8: humanized monoclonal IgG1 antibody against CD40L (anti-CD154)
fibrin; [9]
  fibrin deposition on the endothelium: no significant treatment-related effects
Platelets [3]; [9]
  platelet aggregate formation on the endothelium: no significant treatment-related effects
